Holding throughout (type): functional
Assay [1] in a line: Antioxidant activity assessed as inhibition of fenton reaction-induced pBR322 DNA single strand break by agarose gel electrophoresis.
A short description of assay [2]: Antioxidant activity assessed as inhibition of fenton reaction-induced pBR322 DNA single strand break by CAS assay.
Assay [3] has as its system Radical scavenging activity. As to the kind of experiment: Antioxidant activity assessed as DPPH radical scavenging activity. (In general: DPPH is a stable violet radical that fades when it is reduced.)
The nature of assay [4]: Antioxidant activity assessed as ABTS radical scavenging activity.

In general, IC50 refers to the concentration that gives 50% inhibition.

Each structure is given as a SMILES string. The source made the active and inactive calls. The rule behind the calls is not given here.

For the molecule `CC1=CC(=O)C2(O1)c1c(cc(/C=C/c3ccc(O)c(O)c3)oc1=O)OC2c1ccc(O)c(O)c1` (stereo not drawn), the outcome in assay [1] and in assay [2] was Active.

Regarding `COC(=O)CC1=CC(=O)[C@H](c2c(O)cc(/C=C/c3ccc(O)c(O)c3)oc2=O)[C@@H](c2ccc(O)c(O)c2)O1` [BAUMIN], the IC50 in assay [3] was 7.5 µM; in assay [4] it was 11.7 µM. For the same molecule, the result in assay [1] and in assay [2] was Active.

For the molecule `CC1=CC(=O)[C@H](c2c(O)cc(/C=C/c3ccc(O)c(O)c3)oc2=O)[C@@H](c2ccc(O)c(O)c2)O1` [DAVALLIALACTONE], the IC50 in assay [3] came out at 1.2 µM; in assay [4], 2.8 µM. Further, the outcome in assay [1] and in assay [2] was Active.

Turning to `CC(=O)/C=C(O)/C(=C\c1ccc(O)c(O)c1)c1c(O)cc(/C=C/c2ccc(O)c(O)c2)oc1=O`, the result in assay [1] and in assay [2] was Active.

`O=c1cc(O)cc([C@H]2c3c(cc(/C=C/c4ccc(O)c(O)c4)oc3=O)O[C@@H]2c2ccc(O)c(O)c2)o1`: the result in assay [1] and in assay [2] was Active.

For the molecule `O=c1oc2cc(/C=C/c3ccc(O)c(O)c3)oc(=O)c2c2cc(O)c(O)cc12`, the outcome in assay [1] and in assay [2] was Active.

Turning to `O=c1cc(O)cc(/C=C/c2ccc(O)c(O)c2)o1`, the outcome in assay [1] was inactive. Besides, the result in assay [2] was Active.
